From patent US10208074B2, “Pyrazole compounds and method for making and using the compounds” (Rigel Pharmaceuticals, Inc., priority 2015, dated 2019)
Counter-ions that a name gives are not always drawn. Like-named read-outs stand apart in the source and are kept apart here.

Assays:
[1] = tested on: IL-23 (p19/p40); assay: IL23-p19 ELISA, Dendritic, LPS (compound screening using DC cells); assay type: cell-based, Human; conditions: PBMC-derived DC cells, IFNγ primed, LPS 1 μg/ml, 18 hours, 10 pt, read-out: IL23-p19 ELISA, Dendritic, LPS, 10 pt, EC50
In short: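 Human PBMC-derived dendritic cells (7 d GM-CSF 100 ng/ml + IL-4 20 ng/ml), primed 24 h with IFNγ 50 ng/ml, pre-incubated 1 h with compound, then stimulated 18 h with LPS 1 μg/ml. Supernatant IL-23 measured by p19-capture/p40-detection chemiluminescent ELISA; CellTiter Glo checks cytotoxicity.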

[2] = tested on: IL-23p19; assay: LPS induced IL23p19 in THP-1 cells (with IFNγ primed) assay; assay type: cell-based, Human; conditions: THP-1 cells, IFNγ primed, LPS 1 ug/mL, 18 hours, 10 pt, read-out: IL23-p19 ELISA, THP1-IFNy, LPS, 10 pt EC50
In short: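 THP-1 cells primed ~18 h with IFNγ (50 ng/mL), pre-incubated 1 h with compound at 37 °C, then stimulated 18 h with LPS (1 ug/mL final). Supernatant IL-23p19 measured by sandwich ELISA with chemiluminescent read-out; EC50 from curve fitting. Toxicity checked on the remaining cells by Cell Titer Glo.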

| Structure (SMILES) | EC50 ([1]; Homo sapiens, 18 h) [µM] | EC50 ([2]; Homo sapiens, THP-1, 18 h) [µM] | EC50 [1] [µM] | EC50 [2] [µM] |
| --- | --- | --- | --- | --- |
| Cn1cc(NC(=O)c2ccc(-c3cn[nH]c3)o2)c(-c2ccccn2)n1 [Compound I-77, N-{1-Methyl-3-(pyridine-2-yl)-1H-pyrazol-4-yl}-5-(1H-pyrazol-4-yl)furan-2-carboxamide, free base] |  |  | 0.041 | 0.0504 |
| COCCn1cc(NC(=O)c2ccc(-c3c[nH]nc3C(F)(F)F)o2)c(-c2ccccn2)n1 [Compound I-13, N-(1-(2-methoxyethyl)-3-(pyridin-2-yl)-1H-pyrazol-4-yl)-5-(3-(trifluoromethyl)-1H-pyrazol-4-yl)furan-2-carboxamide] | 11 | 136 |  |  |
| COCCOCCN(C(=O)c1ccc(-c2cnn(CCOCCOC)c2)o1)c1cn(CCOCCOC)nc1-c1ccccn1 [Compound I-50, N-(2-(2-methoxyethoxy)ethyl)-5-(1-(2-(2-methoxyethoxy)ethyl)-1H-pyrazol-4-yl)-N-(1-(2-(2-methoxyethoxy)ethyl)-3-(pyridin-2-yl)-1H-pyrazol-4-yl)furan-2-carboxamide formate] | 3.51 | 14.2 |  |  |
| CCO[C@@H]1C[C@H](n2cc(NC(=O)c3ccc(-c4cn[nH]c4)o3)c(-c3ccccn3)n2)C1F (stereo partly drawn) [Compound I-140, N-(1-((1S,3R)-3-ethoxy-2-fluorocyclobutyl)-3-(pyridin-2-yl)-1H-pyrazol-4-yl)-5-(1H-pyrazol-4-yl)furan-2-carboxamide formate] | 0.224 | 0.799 |  |  |
| O=C(Nc1cn([C@H]2C[C@H](OCC(F)(F)F)C2)nc1-c1ccccn1)c1ccc(-c2cn[nH]c2)o1 [Compound I-128, 5-(1H-pyrazol-4-yl)-N-(3-(pyridin-2-yl)-1-(3-(2,2,2-trifluoroethoxy)cyclobutyl)-1H-pyrazol-4-yl)furan-2-carboxamide formate] | 0.0604 | 0.134 |  |  |
| CCOCCn1cc(NC(=O)c2ccc(-c3cnn(C(=O)OC(C)(C)C)c3)o2)c(-c2ccccn2)n1 [Compound I-4, tert-butyl 4-(5-((1-(2-ethoxyethyl)-3-(pyridin-2-yl)-1H-pyrazol-4-yl)carbamoyl)furan-2-yl)-1H-pyrazole-1-carboxylate] | 0.619 | 0.713 |  |  |
| COCCOCCn1cc(NC(=O)c2ccc(-c3cn[nH]c3)o2)c(-c2nccs2)n1 [Compound I-64, N-(1-(2-(2-methoxyethoxy)ethyl)-3-(thiazol-2-yl)-1H-pyrazol-4-yl)-5-(1H-pyrazol-4-yl)furan-2-carboxamide] | 0.366 | 0.0777 |  |  |
| CC(C)n1cc(NC(=O)c2ccc(-c3cn[nH]c3)o2)c(-c2ccccn2)n1 [Compound I-110, N-(1-isopropyl-3-(pyridin-2-yl)-1H-pyrazol-4-yl)-5-(1H-pyrazol-4-yl)furan-2-carboxamide] | 0.388 | 0.279 |  |  |
| O=C(Nc1cn(C2CN(C(=O)C3CC3)C2)nc1-c1ccccn1)c1ccc(-c2cn[nH]c2)o1 [Compound I-89, N-[1-{1-(Cyclopropanecarbonyl)azetidin-3-yl}-3-(pyridine-2-yl)-1H-pyrazol-4-yl]-5-(1H-pyrazol-4-yl)furan-2-carboxamide, formate salt] | 0.0231 | 0.0166 |  |  |
| COCCn1cc(NC(=O)c2ccc(-c3cnn(C(=O)[C@@H](NC(=O)OC(C)(C)C)C(C)C)c3)o2)c(-c2ccccn2)n1 [Compound I-20, tert-butyl (S)-(1-(4-(5-((1-(2-methoxyethyl)-3-(pyridin-2-yl)-1H-pyrazol-4-yl)carbamoyl)furan-2-yl)-1H-pyrazol-1-yl)-3-methyl-1-oxobutan-2-yl)carbamate] | 0.195 | 0.167 |  |  |
| COCCn1cc(NC(=O)c2ccc(-c3c[nH]nc3C)o2)c(-c2ncccn2)n1 [Compound I-8, N-(1-(2-methoxyethyl)-3-(pyrimidin-2-yl)-1H-pyrazol-4-yl)-5-(3-methyl-1H-pyrazol-4-yl)furan-2-carboxamide] | 0.429 | 0.88 |  |  |

More lines, now with the values ahead:

| EC50 ([1]; Homo sapiens, 18 h) [µM] | EC50 ([2]; Homo sapiens, THP-1, 18 h) [µM] | EC50 [1] [µM] | EC50 [2] [µM] | Structure (SMILES) |
| --- | --- | --- | --- | --- |
| 0.244 | 0.106 |  |  | O=C(Nc1cn(CCOCC(F)(F)F)nc1-c1ccccn1)c1csc(-c2cc[nH]n2)n1 [II-66, 2-(1H-pyrazol-3-yl)-N-(3-(pyridin-2-yl)-1-(2-(2,2,2-trifluoroethoxy)ethyl)-1H-pyrazol-4-yl)thiazole-4-carboxamide] |
| 0.191 | 0.361 |  |  | O=C(Nc1c[nH]nc1-c1ccccn1)c1csc(-c2cn[nH]c2)n1 [II-32, 2-(1H-pyrazol-4-yl)-N-(3-(pyridin-2-yl)-1H-pyrazol-4-yl)thiazole-4-carboxamide formic acid salt] |
| 0.0057 | 0.0434 |  |  | O=C(Nc1cn([C@H]2C[C@@H](O)C2)nc1-c1ccccn1)c1csc(-c2cn[nH]c2)n1 [II-14, N-(1-((1,3-cis)-3-hydroxycyclobutyl)-3-(pyridin-2-yl)-1H-pyrazol-4-yl)-2-(1H-pyrazol-4-yl)thiazole-4-carboxamide] |
|  |  | 0.343 | 0.369 | CCO[C@H]1C[C@@H](n2cc(NC(=O)c3csc(-c4cn[nH]c4F)n3)c(-c3ccccn3)n2)C1 [II-73, N-(1-((1s,3s)-3-ethoxycyclobutyl)-3-(pyridin-2-yl)-1H-pyrazol-4-yl)-2-(5-fluoro-1H-pyrazol-4-yl)thiazole-4-carboxamide] |
| 0.113 | 0.0771 |  |  | Cn1cc(NC(=O)c2csc(-c3cn[nH]c3)n2)c(-c2ccccn2)n1 [II-26, N-(1-methyl-3-(pyridin-2-yl)-1H-pyrazol-4-yl)-2-(1H-pyrazol-4-yl)thiazole-4-carboxamide] |
| 5.78 | 0.137 |  |  | CCO[C@H]1C[C@@H](n2cc(NC(=O)c3csc(-c4cn[nH]c4)n3)c(-c3ccc(C(F)(F)F)cn3)n2)C1 [II-86, N-(1-((1,3-cis)-3-ethoxycyclobutyl)-3-(5-(trifluoromethyl)pyridin-2-yl)-1H-pyrazol-4-yl)-2-(1H-pyrazol-4-yl)thiazole-4-carboxamide] |
| 0.0435 | 0.0749 |  |  | O=C(Nc1cn(C2CNC2)nc1-c1ccccn1)c1csc(-c2cn[nH]c2)n1 [II-55, N-{1-(Azetidin-3-yl)-3-(pyridine-2-yl)-1H-pyrazol-4-yl}-2-(1H-pyrazol-4-yl)thiazole-4-carboxamide] |
|  |  | 0.799 | 0.17 | CCOCCn1cc(NC(=O)c2csc(-c3c[nH]nc3C)n2)c(-c2ccccn2)n1 [II-31, N-(1-(2-ethoxyethyl)-3-(pyridin-2-yl)-1H-pyrazol-4-yl)-2-(3-methyl-1H-pyrazol-4-yl)thiazole-4-carboxamide] |
| 0.211 | 0.109 |  |  | O=C(Nc1cn(CCOCCF)nc1-c1ccccn1)c1csc(-c2cn[nH]c2)n1 [II-118, N-(1-(2-(2-fluoroethoxy)ethyl)-3-(pyridin-2-yl)-1H-pyrazol-4-yl)-2-(1H-pyrazol-4-yl)thiazole-4-carboxamide] |
| 0.161 | 0.4 |  |  | O=C(Nc1cn(CCOCC(F)F)nc1-c1ccccn1)c1coc(-c2cn[nH]c2)n1 [III-8, N-(1-(2-(2,2-difluoroethoxy)ethyl)-3-(pyridin-2-yl)-1H-pyrazol-4-yl)-2-(1H-pyrazol-4-yl)oxazole-4-carboxamide] |
